US20070142480A1, “Alleviation of pain in osteoarthritis by means of intra-articular implantation of perfluorodecalin” (priority 2005, published 2007)

How the values were obtained:
[1] = test system: patients with symptomatic knee OA; experiment: single group, open-label study of weekly intra-articular injections in outpatients with symptomatic knee OA; assay type: in vivo, human; settings: for WOMAC score: baseline 5±2, p<0.001
Procedure: The efficacy of treatment was determined by a validated clinical test method and side effects recorded. This was a single group, open-label study, including outpatients of both sexes, aged between 18 and 85 years, with symptomatic knee OA. All patients (25) underwent weekly intra-articular injections of perfluorodecalin for 5 consecutive weeks and were followed-up for 10 additional weeks. The safety and tolerability profile (primary end-point) was assessed by adverse event reporting. The secondary endpoint was efficacy evaluated by changes in the Western Ontario and McMaster Universities (WOMAC) score vs. baseline. Patient and physician satisfaction were also recorded.

[2] = cited from earlier work
[3] = cited from earlier work; remark: listed apart in the source

Structure (SMILES): FC1(F)C(F)(F)C(F)(F)C2(F)C(F)(F)C(F)(F)C(F)(F)C(F)(F)C2(F)C1(F)F (centres unmarked) [Perfluorodecalin]
- serious treatment-related adverse events ([1]; 25 patients, 5 weekly intra-articular injections, 10 additional weeks follow-up): no serious treatment-related adverse events were reported
- most frequent adverse event: pain at the injection site ([1]; 25 patients, weekly intra-articular injections for 5 consecutive weeks): 10 % of the injections
- duration of relief of pain, on average ([1]; after intra-articular injection): one week
- carry-over effect after the last injection ([1]; based on sustained improvements in WOMAC score and subscores): at least 3 weeks
- WOMAC score ([1]; end of the injection series, week 6): 2±1.5
- WOMAC subscore 'pain' ([1]; from week 4): significantly reduced
- WOMAC subscore 'physical function' ([1]; from week 6): significantly reduced
- WOMAC subscore 'stiffness' ([1]; from week 6): significantly reduced
- safety and tolerability profile ([1]; intra-articular, adverse event reporting): generally well tolerated
- WOMAC score ([1]; within the first 2 weeks of treatment): 3±2
- solubility in water and in traditional organic solvents [2]: insoluble
- Vapor pressure at 37° C. ([3]; 37° C.): 14 mm Hg
- CO2 solubility [3]: 1400 mL/L
- O2 solubility [3]: 490 mL/L
